From paper PMC6751662, “Pharmacological and functional similarities of the human neuropeptide Y system in C. elegans challenges phylogenetic views on the FLP/NPR system” (Cell Communication and Signaling : CCS, 2019)

Columns and labels:
Assay type in all cases: cell-based, C. elegans
[1] = target: T1, NPR-1 (Caenorhabditis elegans, UniProt Q18534); assay: cAMP reporter gene assay, Gs (no forskolin), NPR-1; parameters: host or cells: HEK293; conditions: no forskolin, 4 h, transiently transfected HEK293, CRE-luciferase reporter, mean of >=3 independent experiments
T1 sequence (Q18534 1-457): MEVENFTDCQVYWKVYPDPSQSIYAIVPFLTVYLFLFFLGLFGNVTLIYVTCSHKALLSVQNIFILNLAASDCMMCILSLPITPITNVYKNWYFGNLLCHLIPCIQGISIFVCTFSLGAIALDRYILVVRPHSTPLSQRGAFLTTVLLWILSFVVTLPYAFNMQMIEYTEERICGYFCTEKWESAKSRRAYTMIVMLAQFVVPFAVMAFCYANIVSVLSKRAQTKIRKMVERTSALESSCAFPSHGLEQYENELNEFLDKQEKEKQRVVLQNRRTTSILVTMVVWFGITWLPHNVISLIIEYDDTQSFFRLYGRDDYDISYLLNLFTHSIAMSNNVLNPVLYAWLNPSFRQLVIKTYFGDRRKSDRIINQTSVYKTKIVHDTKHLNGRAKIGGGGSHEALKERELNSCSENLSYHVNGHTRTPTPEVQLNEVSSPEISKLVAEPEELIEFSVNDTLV
Description: Activation of Gs and Gi/o was assessed with a cAMP reporter gene assay. HEK293 cells grown to 70–80% confluency in 6-well plates were transiently co-transfected with vectors encoding the receptor and the cAMP reporter gene plasmid pGL4.29 [luc2P/CRE/Hygro] (Promega; 4 μg total, 1:1 ratio) using Metafectene Pro (3 μl/μg DNA; Biontex) following the manufacturer’s instructions. 16 h post transfection, the cells were seeded into white 384-well plates at a density of 20,000 cells/well. On the next day, the medium was removed and the cells were stimulated with 20 μl of peptide solution (or forskolin as positive control) in serum-free DMEM for 4 h. For measuring Gi/o activity, the peptide solutions additionally contained 1 μM forskolin to elevate cellular cAMP levels. After incubation, the luciferase substrate OneGlo in lysis buffer (Promega) was added and the luminescence was measured in a microplate reader Tecan Spark (Tecan). Data were analyzed with GraphPad Prism 5.03 and are shown as fold of basal or fold of forskolin in case of Gαi/o activity.
For in vitro activation, data is presented as mean ± SEM of at least three independent experiments conducted in technical triplicate. […] For the C. elegans NPRs, we considered the strongest response elicited by any of the peptides downstream of a particular receptor as the receptor’s maximal signal. This may or may not be the biological maximum that can be reached by the ‘true’ endogenous agonist. For the human receptors, the response to the established endogenous agonist reflected the maximal signal.

[2] = target: T2, NPR-11 (Caenorhabditis elegans, UniProt Q18179); assay: IP accumulation assay, endogenous Gαq + mock, NPR-11; conditions: 1 h, HBSS + 20 mM LiCl, HEK293 receptor + empty vector, HTRF IP-One, mean of >=3 independent experiments
T2 construct: expressed in transfected cells; host or cells: HEK293, transient
T2 sequence (Q18179 1-402): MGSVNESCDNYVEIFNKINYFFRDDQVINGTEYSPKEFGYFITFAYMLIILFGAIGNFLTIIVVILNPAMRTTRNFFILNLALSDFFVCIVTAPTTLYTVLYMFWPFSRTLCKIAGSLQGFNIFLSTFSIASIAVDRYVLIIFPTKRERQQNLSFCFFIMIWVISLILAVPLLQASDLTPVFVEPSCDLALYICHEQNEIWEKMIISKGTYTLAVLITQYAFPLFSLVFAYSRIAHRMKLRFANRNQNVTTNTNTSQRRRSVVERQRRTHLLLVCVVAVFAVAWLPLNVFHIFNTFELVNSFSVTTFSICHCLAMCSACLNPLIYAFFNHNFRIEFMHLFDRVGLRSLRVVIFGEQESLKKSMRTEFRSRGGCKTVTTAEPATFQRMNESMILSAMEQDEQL
Description: (§1) For measuring IP accumulation, HEK293 cells grown to 70–80% confluency in 6-well plates were transiently co-transfected using Metafectene Pro (2.5 μl/μg DNA; Biontex) with plasmids containing receptor and/or mock (empty pcDNA3.1) (for endogenous Gq-coupling) using 4 μg total DNA in a ratio of 3:1 following the manufacturer’s instructions. For testing Gα16- and GαΔ6qi4myr-coupling, plasmids encoding the corresponding Gα protein were co-transfected instead of mock. Gα16 is naturally promiscuous and stimulates the phospholipase C (PLC) pathway leading to IP production, while the exchange of the C-terminal four amino acids of Gαq for the corresponding residues of Gαi1 in the chimeric GαΔ6qi4myr confers the ability to couple to Gi/o protein-preferring receptors but still stimulate PLC, thus specifically redirecting downstream cellular signaling. 16 h post transfection, the cells were seeded into white 384-well plates at a density of 20,000 cells/well. Media was removed 24 h later and the cells were incubated with the indicated concentration of peptides for 1 h in HBSS + 20 mM LiCl. IP accumulation was measured with the HTRF-based IP-One Gq kit (Cisbio) on a microplate reader (Tecan Spark).
(§2) For in vitro activation, data is presented as mean ± SEM of at least three independent experiments conducted in technical triplicate. […]

[3] = target: T3, NPR-5b (Caenorhabditis elegans, UniProt Q6F3C9); assay: IP accumulation assay, endogenous Gαq + mock, NPR-5b; conditions: 1 h, HBSS + 20 mM LiCl, HEK293 receptor + empty vector, HTRF IP-One, mean of >=3 independent experiments
T3 sequence (Q6F3C9 1-433): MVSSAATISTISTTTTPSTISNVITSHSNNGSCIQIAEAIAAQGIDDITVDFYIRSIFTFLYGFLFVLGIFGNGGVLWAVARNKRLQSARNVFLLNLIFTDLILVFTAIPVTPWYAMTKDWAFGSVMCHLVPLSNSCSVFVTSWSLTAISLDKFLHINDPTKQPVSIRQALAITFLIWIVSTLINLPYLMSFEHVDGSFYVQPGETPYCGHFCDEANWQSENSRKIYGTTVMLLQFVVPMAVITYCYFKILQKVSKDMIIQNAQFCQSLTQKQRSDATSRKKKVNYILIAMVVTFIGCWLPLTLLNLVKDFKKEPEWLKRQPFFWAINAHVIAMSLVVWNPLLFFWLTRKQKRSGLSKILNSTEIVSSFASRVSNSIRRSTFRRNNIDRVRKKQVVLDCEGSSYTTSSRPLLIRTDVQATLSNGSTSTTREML
Description: as §1, §2

[4] = 0.1 nM peptide (so in the source)

Substance: APKPKFIRF-NH2 [FLP-5-1, C. elegans FMRFamide-like peptide, C-terminally amidated, synthesized by SPPS]
- cAMP assay Gs, NPR-1 ([1]; 0.1 µM peptide): 1.12 x-fold of basal
- cAMP assay Gs, NPR-1 ([1]; 10 µM peptide): 1.05 x-fold of basal
- IP assay endog. Gαq + mock, NPR-11 [2, 4]: 1.05 x-fold of basal
- IP assay endog. Gαq + mock, NPR-11 ([2]; 10 µM peptide): 1.09 x-fold of basal
- IP assay endog. Gαq + mock, NPR-5b [3, 4]: 0.93 x-fold of basal
- IP assay endog. Gαq + mock, NPR-5b ([3]; 10 µM peptide): 1.11 x-fold of basal
